From patent US8748496B2, “Methods of treatment of hyperuricemia and associated disease states” (Elan Pharmaceuticals, Inc., priority 2008, dated 2014)

Test system: uric acid levels
Experiment: Multiple ascending dose study every twelve hours for seven days, uric acid in healthy elderly subjects
Format: in vivo, human
Settings: for uric acid, Mean: N=6
Description: A single-center, randomized, placebo-controlled, multiple ascending dose study evaluating a scyllo-inositol formulation was conducted in healthy elderly subjects. Approximately 32 healthy subjects (men and women) participated in […] consisting of 8 subjects each (i.e., 6 on active drug and 2 on placebo). Subjects received drug twice daily (BID) (every 12 hours) for 7 days. The dosage levels of the scyllo-inositol were 200 mg BID (400 mg/d total), 700 mg BID (1400 mg/d total), 1500 mg BID (3000 mg/d total) and 3000 mg BID (6000 mg/d total) given every 12 hours. Blood samples were collected from each subject on days 0, 4, 7, and 12.
Scyllo-inositol 200 and 500 mg capsules were bovine spongiform encephalopathy (BSE)/transmissible spongiform encephalopathy (TSE)-free soft gelatin, white, opaque capsules and no excipient was used in the finished product. Capsules were supplied in 60-mL, oblong, white pharmaceutical high density polyethylene (HDPE) bottles with white caps. Each 60-mL bottle contained 30 capsules of 200 or 500 mg scyllo-inositol.
The mean change from baseline to day 7 versus placebo was used to determine statistical significance. […] The ANCOVA looked at the change of uric acid levels in controls from starting levels of uric acid; the software used was SAS 9.1.3. […] The point estimate of 0.85 is a population parameter in dosed subjects.

[1] = 200 mg BID oral 7 days group, Baseline (Day 0)
[2] = 700 mg BID oral 7 days group, Baseline (Day 0)
[3] = 1500 mg BID oral 7 days group, Baseline (Day 0)
[4] = 1500 mg BID oral 7 days, Day 12
[5] = 3000 mg BID oral 7 days group, Baseline (Day 0)
[6] = 3000 mg BID oral 7 days, Day 12

O[C@H]1[C@H](O)[C@@H](O)[C@H](O)[C@@H](O)[C@@H]1O [scyllo-inositol, 1,2,3,4,5,6-cyclohexanehexyl, (1alpha,2beta,3alpha,4beta,5alpha,6beta)]
uric acid, Max [1]: 458 micromole per liter
uric acid, Median [1]: 318.2 micromole per liter
uric acid, Min [1]: 149 micromole per liter
uric acid, Mean [1]: 316.2 micromole per liter
uric acid, Max (200 mg BID oral 7 days, Day 4): 410 micromole per liter
uric acid, Max Change from Baseline (200 mg BID oral 7 days, Day 4): 54 micromole per liter
uric acid, Mean Change from Baseline (200 mg BID oral 7 days, Day 4): −7.9 micromole per liter
uric acid, Median (200 mg BID oral 7 days, Day 4): 330.1 micromole per liter
uric acid, Median Change from Baseline (200 mg BID oral 7 days, Day 4): −11.9 micromole per liter
uric acid, Min (200 mg BID oral 7 days, Day 4): 143 micromole per liter
uric acid, Min Change from Baseline (200 mg BID oral 7 days, Day 4): −48 micromole per liter
uric acid, Mean (200 mg BID oral 7 days, Day 4): 308.3 micromole per liter
uric acid, Max (200 mg BID oral 7 days, Day 7): 387 micromole per liter
uric acid, Max Change from Baseline (200 mg BID oral 7 days, Day 7): 18 micromole per liter
uric acid, Mean Change from Baseline (200 mg BID oral 7 days, Day 7): −25.8 micromole per liter
uric acid, Median (200 mg BID oral 7 days, Day 7): 333.1 micromole per liter
uric acid, Median Change from Baseline (200 mg BID oral 7 days, Day 7): −17.8 micromole per liter
uric acid, Min (200 mg BID oral 7 days, Day 7): 143 micromole per liter
uric acid, Min Change from Baseline (200 mg BID oral 7 days, Day 7): −77 micromole per liter
uric acid, Mean (200 mg BID oral 7 days, Day 7): 290.5 micromole per liter
uric acid, Max (200 mg BID oral 7 days, Day 12): 476 micromole per liter
uric acid, Max Change from Baseline (200 mg BID oral 7 days, Day 12): 59 micromole per liter
uric acid, Median (200 mg BID oral 7 days, Day 12): 368.8 micromole per liter
uric acid, Median Change from Baseline (200 mg BID oral 7 days, Day 12): 26.8 micromole per liter
uric acid, Min (200 mg BID oral 7 days, Day 12): 184 micromole per liter
uric acid, Min Change from Baseline (200 mg BID oral 7 days, Day 12): −12 micromole per liter
uric acid, Mean (200 mg BID oral 7 days, Day 12): 342.0 micromole per liter
uric acid, Max [2]: 410 micromole per liter
uric acid, Median [2]: 258.7 micromole per liter
uric acid, Min [2]: 161 micromole per liter
uric acid, Mean [2]: 269.6 micromole per liter
uric acid, Max (700 mg BID oral 7 days, Day 4): 351 micromole per liter
uric acid, Max Change from Baseline (700 mg BID oral 7 days, Day 4): 0 micromole per liter
uric acid, Mean Change from Baseline (700 mg BID oral 7 days, Day 4): −51.5 micromole per liter
uric acid, Median (700 mg BID oral 7 days, Day 4): 175.5 micromole per liter
uric acid, Median Change from Baseline (700 mg BID oral 7 days, Day 4): −62.5 micromole per liter
uric acid, Min (700 mg BID oral 7 days, Day 4): 143 micromole per liter
uric acid, Min Change from Baseline (700 mg BID oral 7 days, Day 4): −101 micromole per liter
uric acid, Mean (700 mg BID oral 7 days, Day 4): 218.1 micromole per liter
uric acid, Max (700 mg BID oral 7 days, Day 7): 309 micromole per liter
uric acid, Max Change from Baseline (700 mg BID oral 7 days, Day 7): −12 micromole per liter
uric acid, Mean Change from Baseline (700 mg BID oral 7 days, Day 7): −70.4 micromole per liter
uric acid, Median (700 mg BID oral 7 days, Day 7): 169.5 micromole per liter
uric acid, Median Change from Baseline (700 mg BID oral 7 days, Day 7): −83.3 micromole per liter
uric acid, Min (700 mg BID oral 7 days, Day 7): 125 micromole per liter
uric acid, Min Change from Baseline (700 mg BID oral 7 days, Day 7): −107 micromole per liter
uric acid, Mean (700 mg BID oral 7 days, Day 7): 199.3 micromole per liter
uric acid, Max (700 mg BID oral 7 days, Day 12): 410 micromole per liter
uric acid, Max Change from Baseline (700 mg BID oral 7 days, Day 12): 30 micromole per liter
uric acid, Mean Change from Baseline (700 mg BID oral 7 days, Day 12): −1.0 micromole per liter
uric acid, Median (700 mg BID oral 7 days, Day 12): 237.9 micromole per liter
uric acid, Median Change from Baseline (700 mg BID oral 7 days, Day 12): 3.0 micromole per liter
uric acid, Min (700 mg BID oral 7 days, Day 12): 167 micromole per liter
uric acid, Min Change from Baseline (700 mg BID oral 7 days, Day 12): −54 micromole per liter
uric acid, Mean (700 mg BID oral 7 days, Day 12): 268.7 micromole per liter
uric acid, Max [3]: 434 micromole per liter
uric acid, Median [3]: 279.6 micromole per liter
uric acid, Min [3]: 220 micromole per liter
uric acid, Mean [3]: 303.3 micromole per liter
uric acid, Max (1500 mg BID oral 7 days, Day 4): 291 micromole per liter
uric acid, Max Change from Baseline (1500 mg BID oral 7 days, Day 4): 12 micromole per liter
uric acid, Mean Change from Baseline (1500 mg BID oral 7 days, Day 4): −70.4 micromole per liter
uric acid, Median (1500 mg BID oral 7 days, Day 4): 237.9 micromole per liter
uric acid, Median Change from Baseline (1500 mg BID oral 7 days, Day 4): −71.4 micromole per liter
uric acid, Min (1500 mg BID oral 7 days, Day 4): 155 micromole per liter
uric acid, Min Change from Baseline (1500 mg BID oral 7 days, Day 4): −143 micromole per liter
uric acid, Mean (1500 mg BID oral 7 days, Day 4): 233.0 micromole per liter
uric acid, Max (1500 mg BID oral 7 days, Day 7): 256 micromole per liter
uric acid, Max Change from Baseline (1500 mg BID oral 7 days, Day 7): −24 micromole per liter
uric acid, Mean Change from Baseline (1500 mg BID oral 7 days, Day 7): −88.2 micromole per liter
uric acid, Median (1500 mg BID oral 7 days, Day 7): 229.0 micromole per liter
uric acid, Median Change from Baseline (1500 mg BID oral 7 days, Day 7): −77.3 micromole per liter
uric acid, Min (1500 mg BID oral 7 days, Day 7): 155 micromole per liter
uric acid, Min Change from Baseline (1500 mg BID oral 7 days, Day 7): −196 micromole per liter
uric acid, Mean (1500 mg BID oral 7 days, Day 7): 215.1 micromole per liter
uric acid, Max [4]: 399 micromole per liter
uric acid, Max Change from Baseline [4]: 18 micromole per liter
uric acid, Mean Change from Baseline [4]: −27.8 micromole per liter
uric acid, Median [4]: 279.6 micromole per liter
uric acid, Median Change from Baseline [4]: −29.7 micromole per liter
uric acid, Min [4]: 196 micromole per liter
uric acid, Min Change from Baseline [4]: −65 micromole per liter
uric acid, Mean [4]: 275.6 micromole per liter
uric acid, Max [5]: 363 micromole per liter
uric acid, Median [5]: 300.4 micromole per liter
uric acid, Min [5]: 226 micromole per liter
uric acid, Mean [5]: 299.4 micromole per liter
uric acid, Max (3000 mg BID oral 7 days, Day 4): 262 micromole per liter
uric acid, Max Change from Baseline (3000 mg BID oral 7 days, Day 4): −59 micromole per liter
uric acid, Mean Change from Baseline (3000 mg BID oral 7 days, Day 4): −83.3 micromole per liter
uric acid, Median (3000 mg BID oral 7 days, Day 4): 226.0 micromole per liter
uric acid, Median Change from Baseline (3000 mg BID oral 7 days, Day 4): −83.3 micromole per liter
uric acid, Min (3000 mg BID oral 7 days, Day 4): 161 micromole per liter
uric acid, Min Change from Baseline (3000 mg BID oral 7 days, Day 4): −107 micromole per liter
uric acid, Mean (3000 mg BID oral 7 days, Day 4): 216.1 micromole per liter
uric acid, Max (3000 mg BID oral 7 days, Day 7): 268 micromole per liter
uric acid, Max Change from Baseline (3000 mg BID oral 7 days, Day 7): −71 micromole per liter
uric acid, Mean Change from Baseline (3000 mg BID oral 7 days, Day 7): −85.3 micromole per liter
uric acid, Median (3000 mg BID oral 7 days, Day 7): 214.1 micromole per liter
uric acid, Median Change from Baseline (3000 mg BID oral 7 days, Day 7): −74.4 micromole per liter
uric acid, Min (3000 mg BID oral 7 days, Day 7): 149 micromole per liter
uric acid, Min Change from Baseline (3000 mg BID oral 7 days, Day 7): −131 micromole per liter
uric acid, Mean (3000 mg BID oral 7 days, Day 7): 214.1 micromole per liter
uric acid, Max [6]: 345 micromole per liter
uric acid, Max Change from Baseline [6]: 18 micromole per liter
uric acid, Mean Change from Baseline [6]: −29.7 micromole per liter
uric acid, Median [6]: 270.6 micromole per liter
uric acid, Median Change from Baseline [6]: −23.8 micromole per liter
uric acid, Min [6]: 208 micromole per liter
uric acid, Min Change from Baseline [6]: −83 micromole per liter
uric acid, Mean [6]: 269.6 micromole per liter
decreases from baseline in uric acid, dose-response (200-3000 mg BID oral 7 days, Day 7): a dose-response effect was not as apparent
mean uric acid levels, relation to dose (200-3000 mg BID oral 7 days, Days 4 and 7, Day 12): dose-related decrease in mean uric acid levels was observed at Days 4 and 7, which partially resolved by Day 12
mean difference (PLC-TRT) in change from baseline to day 7, point estimate (scyllo-inositol treated versus placebo, Day 7, ANCOVA): 0.85
